Kinact/Kl data for 17 compounds are collected here from patent US20250230165A1, “HETEROCYCLIC COMPOUNDS FOR USE IN THE TREATMENT OF CANCER” (ARTIOS PHARMA LIMITED, priority 2021, published 2025).

The experiment deals with T1, Human Polθ polymerase domain (aa1820-2590) (Homo sapiens, UniProt O75417).
T1 construct: Human Polθ polymerase domain (aa1820-2590) was expressed in E. coli; made in house; host or cells: E. coli
T1 sequence (O75417 1820-2590): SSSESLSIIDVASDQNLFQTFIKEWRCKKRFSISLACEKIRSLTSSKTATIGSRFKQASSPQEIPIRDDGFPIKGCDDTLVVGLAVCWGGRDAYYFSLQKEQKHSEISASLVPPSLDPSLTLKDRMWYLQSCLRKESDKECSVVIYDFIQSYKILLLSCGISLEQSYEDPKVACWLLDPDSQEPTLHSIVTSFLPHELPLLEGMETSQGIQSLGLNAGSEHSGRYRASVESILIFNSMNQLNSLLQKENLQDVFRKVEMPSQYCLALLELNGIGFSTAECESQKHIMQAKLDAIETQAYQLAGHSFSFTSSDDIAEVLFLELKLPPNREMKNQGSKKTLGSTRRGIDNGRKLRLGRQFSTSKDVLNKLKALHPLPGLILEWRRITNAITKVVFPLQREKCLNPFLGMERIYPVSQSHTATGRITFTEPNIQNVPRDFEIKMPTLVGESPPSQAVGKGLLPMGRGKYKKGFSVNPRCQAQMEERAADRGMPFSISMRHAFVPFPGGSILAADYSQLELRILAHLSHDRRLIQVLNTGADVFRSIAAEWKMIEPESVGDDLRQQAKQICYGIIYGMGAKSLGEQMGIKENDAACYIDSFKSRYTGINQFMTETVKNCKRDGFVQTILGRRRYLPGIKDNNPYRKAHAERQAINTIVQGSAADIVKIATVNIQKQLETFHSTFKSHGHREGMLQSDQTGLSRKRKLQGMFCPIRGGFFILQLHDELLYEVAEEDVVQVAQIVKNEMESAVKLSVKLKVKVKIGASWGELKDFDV
Briefly: Polθ Polymerase Domain Kinact/KI Assay (PicoGreen). It is filed as biochemical. To be noted: 0.8 nM Polθ, 100 nM DNA substrate, kobs vs [I] fit for 2-step covalent inhibitor. In outline:
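Covalent Kinact/KI by PicoGreen DNA synthesis readout: E. coli-expressed Polθ polymerase domain (0.8 nM), 100 nM annealed DNA substrate, […], Tris pH 7.5 buffer with DTT, 1% DMSO; EDTA-stopped over 0–60 min time course. kobs from progress curves, then kobs vs [I] fit to two-step covalent model.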

Compound `C=CC(=O)N1CC(n2cnc(CN3C[C@H]4CC(=O)N(c5cc(C(F)(F)F)cc(C)n5)[C@@H]4C(=O)N(C)c4cccc(Cl)c43)n2)C1` [Example 42, (3aR,11aS)-5-((1-(1-acryloylazetidin-3-yl)-1H-1,2,4-triazol-3-yl)methyl)-6-chloro-10-methyl-1-(6-methyl-4-(trifluoromethyl)pyridin-2-yl)-1,3a,4,5,10,11a-hexahydro-2H-benzo[b]pyrrolo[2,3-f][1,4]diazocine-2,11(3H)-dione] displayed a Kinact/Kl of 790000 M⁻¹ s⁻¹. Compound `C=CC(=O)N1CC2(CN(CCN3C[C@H]4CC(=O)N(c5cc(C(F)(F)F)cc(C)n5)[C@@H]4C(=O)N(C)c4cccc(Cl)c43)CCN2)C1` [Example 33, (3aR,11aS)-5-(2-(2-acryloyl-2,5,8-triazaspiro[3.5]nonan-8-yl)ethyl)-6-chloro-10-methyl-1-(6-methyl-4-(trifluoromethyl)pyridin-2-yl)-1,3a,4,5, 10,11a-hexahydro-2H-benzo[b]pyrrolo [2,3-f][1,4]diazocine-2,11(3H)-dione] showed a Kinact/Kl of 1.23e+06 M⁻¹ s⁻¹. For `C=CC(=O)N1Cc2ccc(CN3C[C@H]4CC(=O)N(c5cc(C(F)(F)F)cc(C)n5)[C@@H]4C(=O)N(C)c4cccc(Cl)c43)cc2C1CC#N` (single isomer, unassigned) [Example 288a], the Kinact/Kl came to 630000 M⁻¹ s⁻¹. “(3aR,11aS)-5-(2-((3R/S,9aS/R)-8-acryloyl-3-methyl-4-oxooctahydro-2H-pyrazino[1,2-a]pyrazin-2-yl)ethyl)-6-fluoro-10-methyl-1-(6-methyl-4-(trifluoromethyl)pyridin-2-yl)-1,3a,4,5,10,11a-hexahydro-2H-benzo[b]pyrrolo[2,3-f][1,4]diazocine-2,11(3H)-dione [Example 107]” showed a Kinact/Kl of 420000 M⁻¹ s⁻¹. Consider `C=CC(=O)N1CCN2CCN(CCN3C[C@H]4CC(=O)N(c5cc(C(F)(F)F)cc(C)n5)[C@@H]4C(=O)N(C)c4cccc(F)c43)C(=O)[C@@H]2C1` [Example 45, (3aR,11aS)-5-(2-((S)-8-acryloyl-1-oxooctahydro-2H-pyrazino[1,2-a]pyrazin-2-yl)ethyl)-6-fluoro-10-methyl-1-(6-methyl-4-(trifluoromethyl)pyridin-2-yl)-1,3a,4,5,10,11a-hexahydro-2H-benzo[b]pyrrolo[2,3-f][1,4]diazocine-2,11(3H)-dione], for which the Kinact/Kl amounted to 310000 M⁻¹ s⁻¹. Regarding `C=CC(=O)N1CC(c2nc(CN3C[C@H]4CC(=O)N(c5cc(C(F)(F)F)cc(C)n5)[C@@H]4C(=O)N(C)c4cccc(F)c43)n[nH]2)C1` [Example 98, (3aR,11aS)-5-((5-(1-acryloylazetidin-3-yl)-1H-1,2,4-triazol-3-yl)methyl)-6-fluoro-10-methyl-1-(6-methyl-4-(trifluoromethyl)pyridin-2-yl)-1,3a,4,5,10,11a-hexahydro-2H-benzo[b]pyrrolo[2,3-f][1,4]diazocine-2,11(3H)-dione], the Kinact/Kl was found to be 430000 M⁻¹ s⁻¹.

In the case of `C=CC(=O)N1CC2CN(CCN3C[C@H]4CC(=O)N(c5cc(C(F)(F)F)cc(C)n5)[C@@H]4C(=O)N(C)c4cccc(F)c43)CC(C1)O2` [Example 5, (3aR,11aS)-5-(2-(7-acryloyl-9-oxa-3,7-diazabicyclo[3.3.1]nonan-3-yl)ethyl)-6-fluoro-10-methyl-1-(6-methyl-4-(trifluoromethyl)pyridin-2-yl)-1,3a,4,5,10,11a-hexahydro-2H-benzo[b]pyrrolo[2,3-f][1,4]diazocine-2,11(3H)-dione], the Kinact/Kl came to 140000 M⁻¹ s⁻¹. `C=CC(=O)N1Cc2nc(CN3C[C@H]4CC(=O)N(c5cc(C(F)(F)F)cc(C)n5)[C@@H]4C(=O)N(C)c4cccc(C)c43)cn2CC1C` (single isomer, unassigned) [Example 206a] displayed a Kinact/Kl of 4.36e+06 M⁻¹ s⁻¹. Compound `C=CC(=O)N1CCN(CCCN2C[C@H]3CC(=O)N(c4cc(C(F)(F)F)cc(C)n4)[C@@H]3C(=O)N(C)c3cccc(Cl)c32)CC1CC#N` (mixture of isomers) [Example 267a, 2-((S/R)-1-acryloyl-4-(3-((3aR,11aS)-6-chloro-10-methyl-1-(6-methyl-4-(trifluoromethyl)pyridin-2-yl)-2,11-dioxo-1,2,3,3a,4,10,11,11a-octahydro-5H-benzo[b]pyrrolo[2,3-f][1,4]diazocin-5-yl)propyl)piperazin-2-yl)acetonitrile] gave a Kinact/Kl of 1.24e+06 M⁻¹ s⁻¹. Take `C=CC(=O)N1CC2(CN(CCN3C[C@H]4CC(=O)N(c5cc(C(F)(F)F)cc(C)n5)[C@@H]4C(=O)N(C)c4cccc(F)c43)CCN2CC)C1` [Example 35, (3aR,11aS)-5-(2-(2-acryloyl-5-ethyl-2,5,8-triazaspiro[3.5]nonan-8-yl)ethyl)-6-fluoro-10-methyl-1-(6-methyl-4-(trifluoromethyl)pyridin-2-yl)-1,3a,4,5,10,11a-hexahydro-2H-benzo[b]pyrrolo[2,3-f][1,4]diazocine-2,11(3H)-dione]: the Kinact/Kl worked out at 870000 M⁻¹ s⁻¹.

In turn, `C=CC(=O)N1C[C@@H](F)[C@H](n2cc(CN3C[C@H]4CC(=O)N(c5cc(C(F)(F)F)cc(C)n5)[C@@H]4C(=O)N(C)c4cccc(C)c43)cn2)C1` (single isomer, unassigned) [Example 325b] came in with a Kinact/Kl of 870000 M⁻¹ s⁻¹. Compound `C=CC(=O)N1CCC(N2CCC(CN3C[C@H]4CC(=O)N(c5cc(C(F)(F)F)cc(C)n5)[C@@H]4C(=O)N(C)c4cccc(C)c43)CC2)C1` (mixture of isomers) [Example 95a, (3aR,11aS)-5-((1-((S/R)-1-acryloylpyrrolidin-3-yl)piperidin-4-yl)methyl)-6,10-dimethyl-1-(6-methyl-4-(trifluoromethyl)pyridin-2-yl)-1,3a,4,5,10,11a-hexahydro-2H-benzo[b]pyrrolo[2,3-f][1,4]diazocine-2,11(3H)-dione] yielded a Kinact/Kl of 2.63e+06 M⁻¹ s⁻¹. In turn, `C=C(CN(C)C)C(=O)N1Cc2ccc(CN3C[C@H]4CC(=O)N(c5cc(C(F)(F)F)cc(C)n5)[C@@H]4C(=O)N(C)c4cccc(F)c43)cc2C1` [Example 153, (3aR, 11aS)-5-((2-(2-((dimethylamino)methyl)acryloyl)isoindolin-5-yl)methyl)-6-fluoro-10-methyl-1-(6-methyl-4-(trifluoromethyl)pyridin-2-yl)-1,3a,4,5,10,11a-hexahydro-2H-benzo[b]pyrrolo[2,3-f][1,4]diazocine-2,11(3H)-dione] had a Kinact/Kl of 1.51e+06 M⁻¹ s⁻¹. Consider `C=CC(=O)N1CC(n2cnc(CN3C[C@H]4CC(=O)N(c5cc(C(F)(F)F)cc(C)n5)[C@@H]4C(=O)N(C)c4cc(F)ccc43)c2)C1` [Example 40, (3aR,11aS)-5-((1-(1-acryloylazetidin-3-yl)-1H-imidazol-4-yl)methyl)-8-fluoro-10-methyl-1-(6-methyl-4-(trifluoromethyl)pyridin-2-yl)-1,3a,4,5,10,11a-hexahydro-2H-benzo[b]pyrrolo[2,3-f][1,4]diaocine-2,11(3H)-dione], for which the Kinact/Kl worked out at 850000 M⁻¹ s⁻¹. As for `C#CC(=O)N1CCN(CCN2C[C@H]3CC(=O)N(c4cc(C(F)(F)F)cc(C)n4)[C@@H]3C(=O)N(C)c3cccc(C)c32)CC1` [Example 264, (3aR,11aS)-6,10-dimethyl-1-(6-methyl-4-(trifluoromethyl)pyridin-2-yl)-5-(2-(4-propioloylpiperazin-1-yl)ethyl)-1,3a,4,5,10,11a-hexahydro-2H-benzo[b]pyrrolo[2,3-f][1,4]diazocine-2,11(3H)-dione], the Kinact/Kl was found to be 1.25e+06 M⁻¹ s⁻¹. In the case of `C=CC(=O)N1CC(N(C)CCCN2C[C@H]3CC(=O)N(c4cc(C(F)(F)F)cc(C)n4)[C@@H]3C(=O)N(C)c3cccc(C)c32)C1` [Example 205, (3aR,11aS)-5-(3-((1-acryloylazetidin-3-yl)(methyl)amino)propyl)-6,10-dimethyl-1-(6-methyl-4-(trifluoromethyl)pyridin-2-yl)-1,3a,4,5,10,11a-hexahydro-2H-benzo[b]pyrrolo [2,3-f][1,4]diazocine-2,11(3H)-dione], the Kinact/Kl was 1.67e+06 M⁻¹ s⁻¹. Regarding `C=CC(=O)Nc1ccc(CN2C[C@H]3CC(=O)N(c4cc(C(F)(F)F)cc(C)n4)[C@@H]3C(=O)N(C)c3cccc(Cl)c32)cc1C#N` [Example 248, N-(4-(((3aR,11aS)-6-chloro-10-methyl-1-(6-methyl-4-(trifluoromethyl)pyridin-2-yl)-2,11-dioxo-1,2,3,3a,4,10,11,11a-octahydro-5H-benzo[b]pyrrolo[2,3-f][1,4]diazocin-5-yl)methyl)-2-cyanophenyl)acrylamide], the Kinact/Kl is 810000 M⁻¹ s⁻¹.
